{"source": "patent US20130165489A1", "about": "“Small Molecule Modulators of HIV-1 Capsid Stability and Methods Thereof” (The Trustees of the University of Pennsylvania, priority 2010, published 2013)", "key": {"[1]": {"system": "HIV-1 92BR030 (subtype B clinical isolate)", "experiment": "Anti-HIV efficacy in human PBMCs, isolate 92BR030", "format": "cell-based", "protocol": "HIV human peripheral blood mononuclear cell (PBMC) assays were performed as described previously (Lanier et al., 2010, Antimicrob. Agents Chemother. 54:2901-09; Ptak et al., 2008, Antimicrob. Agents Chemother. 52:1302-17). Briefly, fresh PBMCs, seronegative for HIV and hepatitis B virus (HBV), were isolated from blood samples of the screened donors (Biological Specialty Corporation, Colmar, Pa.) by using lymphocyte separation medium (LSM; density, 1.078±0.002 g/ml; Cellgro; Mediatech, Inc.) by following the manufacturer's instructions. Cells were stimulated by incubation in 4 μg/mL phytohemagglutinin (PHA; Sigma) for 48 to 72 h. Mitogenic stimulation was maintained by the addition of 20 U/mL recombinant human interleukin-2 (rhIL-2; R&D Systems, Inc.) to the culture medium. PHA-stimulated PBMCs from at least two donors were pooled, diluted in fresh medium, and added to 96-well plates at 5×10^4 cells/well. Cells were infected (final multiplicity of infection [MOI] of ≅0.1) in the presence of 9 different concentrations of test compounds (triplicate wells/concentration) and incubated for 7 days. To determine the level of virus inhibition, cell-free supernatant samples were collected for analysis of reverse transcriptase activity (Buckheit Jr., et al., 1991, AIDS Res. Hum. Retroviruses 7:295-302). Following removal of supernatant samples, compound cytotoxicity was measured by the addition of 3-(4,5-dimethylthiazol-2-yl)-5-(3-carboxymethoxyphenyl)-2-(4-sulfophenyl)-2H-tetrazolium (MTS; CellTiter 96 reagent; Promega) by following the manufacturer's instructions.\n79:6089-6101; Jagodzinski et al., 2000, J. Clin. Microbiol. 38:1247-49; Michael et al., 1999, J. Clin. Microbiol. 37:2557-63 and Vahey et al., 1999, J. Clin. Microbiol. 37:2533-37); HIV-1 Group M isolate 931N101 (Subtype C, CCR5-tropic) from Dr. Robert Bollinger and the UNAIDS Network for HIV Isolation and Characterization (Gao et al., 1994, AIDS Res. Hum. Retroviruses 10:1359-68); HIV-1 Group M isolate CMUO8 (Subtype E, CXCR4-tropic) from Dr. Kenrad Nelson and the UNAIDS Network for HIV Isolation and Characterization (Gao et al., 1994, AIDS Res. Hum. Retroviruses 10:1359-68); HIV-1 Group M isolate G3 (Subtype G, CCR5-tropic) from Alash'le Abimiku (Abimiku et al., 1994, Aids Res. Hum. Retrovir. 10:1581-83); HIV-1 Group 0 isolate BCF02 (CCR5-tropic) from Sentob Saragosti, Françoise Brun-Vézinet, and François Simon (Loussertajaka et al., 1995, J. Virol. 69:5640-49); and SIV isolate Mac251 from Dr. Ronald Desrosiers (Daniel et al., 1985, Science 228:1201-04)."}, "YFV": {"system": "YFV", "experiment": "microbe, parasite or virus in culture", "format": "cell-based, yellow fever virus"}, "[2]": {"system": "HIV-1 89BZ167 (subtype B clinical isolate)", "experiment": "Anti-HIV efficacy in human PBMCs, isolate 89BZ167", "format": "cell-based", "protocol": "(§1) HIV human peripheral blood mononuclear cell (PBMC) assays were performed as described previously (Lanier et al., 2010, Antimicrob. Agents Chemother. 54:2901-09; Ptak et al., 2008, Antimicrob. Agents Chemother. 52:1302-17). Briefly, fresh PBMCs, seronegative for HIV and hepatitis B virus (HBV), were isolated from blood samples of the screened donors (Biological Specialty Corporation, Colmar, Pa.) by using lymphocyte separation medium (LSM; density, 1.078±0.002 g/ml; Cellgro; Mediatech, Inc.) by following the manufacturer's instructions. Cells were stimulated by incubation in 4 μg/mL phytohemagglutinin (PHA; Sigma) for 48 to 72 h. Mitogenic stimulation was maintained by the addition of 20 U/mL recombinant human interleukin-2 (rhIL-2; R&D Systems, Inc.) to the culture medium. PHA-stimulated PBMCs from at least two donors were pooled, diluted in fresh medium, and added to 96-well plates at 5×10^4 cells/well. Cells were infected (final multiplicity of infection [MOI] of ≅0.1) in the presence of 9 different concentrations of test compounds (triplicate wells/concentration) and incubated for 7 days. […] Following removal of supernatant samples, compound cytotoxicity was measured by the addition of 3-(4,5-dimethylthiazol-2-yl)-5-(3-carboxymethoxyphenyl)-2-(4-sulfophenyl)-2H-tetrazolium (MTS; CellTiter 96 reagent; Promega) by following the manufacturer's instructions. […]"}, "RSV": {"system": "RSV", "experiment": "CPE assay, RSV", "format": "cell-based, respiratory syncytial virus"}, "[3]": {"system": "HIV-1 93BR020 (subtype F clinical isolate)", "experiment": "Anti-HIV efficacy in human PBMCs, isolate 93BR020", "format": "cell-based", "protocol": "as §1"}, "[4]": {"system": "HIV-1 92BR025 (subtype C clinical isolate)", "experiment": "Anti-HIV efficacy in human PBMCs, isolate 92BR025", "format": "cell-based", "protocol": "as §1"}, "Chikungunya": {"system": "Chikungunya", "experiment": "CPE assay, Chikungunya", "format": "cell-based"}, "in vitro": {"experiment": "in vitro", "conditions": "African green monkey"}, "[5]": {"conditions": "Human immunodeficiency virus 1, PBMC"}}, "data": [{"smiles": "O=C(O)c1ccc(-c2nc(-c3ccccc3)c(-c3ccccc3)[nH]2)cc1", "note": "[CMPD-E, 4-(4,5-diphenyl-1H-imidazol-2-yl)benzoic acid]", "values": [{"measurement": "Antiviral index (TC50/IC50)", "setting": "[1]; 92BR030, PBMC", "result": ">1.46"}, {"measurement": "IC50", "setting": "[1]; [5]", "result": 68.7, "unit": "µM"}, {"measurement": "inhibition of HIV-1 92BR030 replication in PBMCs", "setting": "[1]; primary PBMCs", "result": "could inhibit"}, {"measurement": "IC50", "setting": "YFV; Yellow fever virus", "result": "> 100", "unit": "µM"}, {"measurement": "effect on yellow fever virus replication", "setting": "YFV; up to 100 μM", "result": "no inhibitory effects"}, {"measurement": "IC50", "setting": "[2]; [5]", "result": 92.9, "unit": "µM"}, {"measurement": "Antiviral index (TC50/IC50)", "setting": "[2]; PBMC", "result": ">1.08"}, {"measurement": "activity against RSV", "setting": "RSV; CPE assay, up to 100 μM", "result": "no inhibitory effects"}, {"measurement": "IC50", "setting": "RSV; human respiratory syncytial virus, RSV, Vero cells", "result": "> 100", "unit": "µM"}, {"measurement": "IC50", "setting": "[3]; [5]", "result": 65.6, "unit": "µM"}, {"measurement": "Antiviral index (TC50/IC50)", "setting": "[3]; PBMC", "result": ">1.53"}, {"measurement": "IC50", "setting": "[4]; [5]", "result": 51, "unit": "µM"}, {"measurement": "Antiviral index (TC50/IC50)", "setting": "[4]; PBMC", "result": ">1.96"}, {"measurement": "effect on Chikungunya virus replication", "setting": "Chikungunya", "result": "no inhibitory effects"}, {"measurement": "IC50", "setting": "Chikungunya; Chikungunya virus", "result": "> 100", "unit": "µM"}, {"measurement": "CC50", "setting": "in vitro", "result": "> 100", "unit": "µM"}]}]}
